pKi: −log10 of the molar value.
Legend:
[1] = target: Sodium-dependent serotonin transporter (Homo sapiens, UniProt P31645)
[2] = target: Sodium-dependent noradrenaline transporter (Homo sapiens, UniProt P23975)
[3] = target: Sodium-dependent dopamine transporter (Homo sapiens, UniProt Q01959)
hERG (KCNH2) = hERG (KCNH2) (Homo sapiens, UniProt Q12809); assay: in vitro; conditions: CHO cells expressing human ERG
Description: Inhibition of human ERG expressed in CHO cells

CYP3A4 = CYP3A4 (Homo sapiens, UniProt P08684); assay: in vitro
Description: Inhibition of CYP3A4 by fluorescence assay

CYP2D6 = CYP2D6 (Homo sapiens, UniProt P10635); assay: in vitro
Sequence of CYP2D6 (P10635 whole entry): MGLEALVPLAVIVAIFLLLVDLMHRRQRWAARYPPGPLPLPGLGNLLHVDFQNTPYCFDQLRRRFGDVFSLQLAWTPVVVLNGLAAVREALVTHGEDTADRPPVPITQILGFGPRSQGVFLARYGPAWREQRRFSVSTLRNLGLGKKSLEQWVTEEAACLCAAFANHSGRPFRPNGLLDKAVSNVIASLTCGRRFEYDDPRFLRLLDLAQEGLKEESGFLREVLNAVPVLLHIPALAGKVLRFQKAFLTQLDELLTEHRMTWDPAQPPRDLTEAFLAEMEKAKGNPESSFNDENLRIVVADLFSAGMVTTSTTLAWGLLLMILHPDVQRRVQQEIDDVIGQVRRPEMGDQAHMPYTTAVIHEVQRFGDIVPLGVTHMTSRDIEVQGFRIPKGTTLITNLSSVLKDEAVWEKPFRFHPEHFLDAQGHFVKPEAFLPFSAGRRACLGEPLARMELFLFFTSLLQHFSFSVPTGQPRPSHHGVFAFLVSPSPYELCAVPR
Description: Inhibition of CYP2D6 by fluorescence assay

in vitro [4] = conditions: human, liver microsomes
Description: Intrinsic clearance in human liver microsomes

in vitro [5] = conditions: human, Caco-2
Description: Efflux ratio of apparent permeability from basolateral to apical side to apical to basolateral side in human Caco-2 cells at 10 uM after 21 days

in vitro [6] = conditions: human, Caco-2; remark: listed apart in the source
Description: (§1) Apparent permeability from basolateral to apical side of human Caco-2 cells at 10 uM after 21 days

in vitro [7] = conditions: human, Caco-2; remark: listed apart in the source
Description: (§2) Apparent permeability from apical to basolateral side of human Caco-2 cells at 10 uM after 21 days

Caco-2 [8] = conditions: human, caco-2, 10 µM
Description: as §1

Caco-2 [9] = conditions: human, caco-2, 10 µM; remark: listed apart in the source
Description: as §2

Cytochrome P450 3A4 = Cytochrome P450 3A4 (Homo sapiens, UniProt P08684); assay: Inhibition of CYP3A4 in human liver microsomes after 25 mins; format: ADME, Microsome; conditions: TDE = time-dependent effect
Sequence of Cytochrome P450 3A4 (P08684 whole entry): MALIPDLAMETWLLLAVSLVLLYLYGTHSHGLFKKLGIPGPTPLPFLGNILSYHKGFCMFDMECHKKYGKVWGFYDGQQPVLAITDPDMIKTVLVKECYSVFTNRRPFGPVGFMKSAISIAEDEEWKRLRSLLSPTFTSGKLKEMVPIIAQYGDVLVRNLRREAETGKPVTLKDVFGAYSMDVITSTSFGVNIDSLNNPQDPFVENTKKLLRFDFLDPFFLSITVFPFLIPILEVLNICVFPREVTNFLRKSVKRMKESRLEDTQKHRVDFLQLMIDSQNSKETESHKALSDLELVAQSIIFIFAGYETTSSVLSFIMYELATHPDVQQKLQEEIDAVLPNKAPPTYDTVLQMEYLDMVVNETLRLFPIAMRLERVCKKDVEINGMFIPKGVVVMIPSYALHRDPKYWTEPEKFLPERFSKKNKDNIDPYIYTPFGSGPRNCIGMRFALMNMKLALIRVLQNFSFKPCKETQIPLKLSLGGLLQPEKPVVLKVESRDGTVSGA

Sequence of Sodium-dependent dopamine transporter (Q01959 whole entry): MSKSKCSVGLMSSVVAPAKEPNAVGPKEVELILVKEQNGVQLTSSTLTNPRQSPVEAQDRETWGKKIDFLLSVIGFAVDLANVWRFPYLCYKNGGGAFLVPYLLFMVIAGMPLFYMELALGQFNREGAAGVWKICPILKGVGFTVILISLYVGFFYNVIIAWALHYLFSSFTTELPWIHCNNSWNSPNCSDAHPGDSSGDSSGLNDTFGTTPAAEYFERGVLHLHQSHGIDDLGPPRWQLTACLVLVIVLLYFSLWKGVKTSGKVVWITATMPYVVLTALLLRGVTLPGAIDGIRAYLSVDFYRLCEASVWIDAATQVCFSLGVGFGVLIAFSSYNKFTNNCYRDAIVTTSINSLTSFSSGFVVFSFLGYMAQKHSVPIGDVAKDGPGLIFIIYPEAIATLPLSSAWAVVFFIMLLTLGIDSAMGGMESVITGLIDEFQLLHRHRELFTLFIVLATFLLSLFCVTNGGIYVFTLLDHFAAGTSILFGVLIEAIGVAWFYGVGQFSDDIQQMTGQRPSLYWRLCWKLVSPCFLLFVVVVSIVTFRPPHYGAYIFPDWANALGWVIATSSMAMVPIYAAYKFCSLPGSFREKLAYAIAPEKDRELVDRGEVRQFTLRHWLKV
Sequence of hERG (KCNH2) (Q12809 whole entry): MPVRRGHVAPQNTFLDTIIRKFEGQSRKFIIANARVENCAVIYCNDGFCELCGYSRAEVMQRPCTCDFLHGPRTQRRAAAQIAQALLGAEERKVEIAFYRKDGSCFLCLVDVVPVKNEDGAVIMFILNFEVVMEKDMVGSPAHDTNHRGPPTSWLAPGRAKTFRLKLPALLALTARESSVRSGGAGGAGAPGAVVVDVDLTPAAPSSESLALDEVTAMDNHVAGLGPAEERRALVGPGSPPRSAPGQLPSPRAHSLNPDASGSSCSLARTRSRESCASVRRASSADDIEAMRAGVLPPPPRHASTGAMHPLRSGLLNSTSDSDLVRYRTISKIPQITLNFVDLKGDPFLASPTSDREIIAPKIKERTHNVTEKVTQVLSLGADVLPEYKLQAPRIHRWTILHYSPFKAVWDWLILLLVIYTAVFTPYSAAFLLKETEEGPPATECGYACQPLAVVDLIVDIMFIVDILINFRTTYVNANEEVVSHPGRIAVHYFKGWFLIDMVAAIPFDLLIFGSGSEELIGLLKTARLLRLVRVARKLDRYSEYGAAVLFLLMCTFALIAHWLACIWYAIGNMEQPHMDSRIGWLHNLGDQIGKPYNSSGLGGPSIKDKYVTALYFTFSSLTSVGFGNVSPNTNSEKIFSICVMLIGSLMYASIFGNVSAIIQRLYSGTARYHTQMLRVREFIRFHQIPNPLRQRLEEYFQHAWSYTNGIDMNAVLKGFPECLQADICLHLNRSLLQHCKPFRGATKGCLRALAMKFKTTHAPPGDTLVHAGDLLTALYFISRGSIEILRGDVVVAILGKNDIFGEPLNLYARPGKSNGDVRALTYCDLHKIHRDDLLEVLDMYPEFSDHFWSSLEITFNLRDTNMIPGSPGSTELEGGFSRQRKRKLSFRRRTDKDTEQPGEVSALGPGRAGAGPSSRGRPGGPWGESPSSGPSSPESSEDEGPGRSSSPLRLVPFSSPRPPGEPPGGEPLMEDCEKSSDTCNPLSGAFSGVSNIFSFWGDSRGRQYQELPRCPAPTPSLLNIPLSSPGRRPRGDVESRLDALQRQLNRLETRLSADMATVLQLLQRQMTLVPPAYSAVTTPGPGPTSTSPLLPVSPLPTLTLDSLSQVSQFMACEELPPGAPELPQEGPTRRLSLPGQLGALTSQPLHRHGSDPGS
Sequence of CYP3A4 (P08684 whole entry): as the sequence (P08684 whole entry) above
Sequence of Sodium-dependent noradrenaline transporter (P23975 whole entry): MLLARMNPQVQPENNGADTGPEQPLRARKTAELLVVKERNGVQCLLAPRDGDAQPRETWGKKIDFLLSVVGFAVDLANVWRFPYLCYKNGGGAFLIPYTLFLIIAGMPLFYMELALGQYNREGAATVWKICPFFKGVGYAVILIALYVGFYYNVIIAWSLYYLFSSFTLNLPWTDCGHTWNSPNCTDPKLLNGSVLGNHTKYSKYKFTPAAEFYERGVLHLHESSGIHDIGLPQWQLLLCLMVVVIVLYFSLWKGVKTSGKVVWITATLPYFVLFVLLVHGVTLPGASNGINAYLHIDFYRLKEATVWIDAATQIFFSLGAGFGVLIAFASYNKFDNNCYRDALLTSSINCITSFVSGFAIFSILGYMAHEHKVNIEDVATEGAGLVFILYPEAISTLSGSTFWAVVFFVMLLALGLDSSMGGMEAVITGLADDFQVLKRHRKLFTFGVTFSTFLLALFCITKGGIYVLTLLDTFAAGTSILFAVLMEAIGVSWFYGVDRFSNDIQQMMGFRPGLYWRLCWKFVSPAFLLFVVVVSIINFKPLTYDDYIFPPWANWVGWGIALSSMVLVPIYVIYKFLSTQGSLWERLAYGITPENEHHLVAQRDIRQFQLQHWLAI
Sequence of Sodium-dependent serotonin transporter (P31645 whole entry): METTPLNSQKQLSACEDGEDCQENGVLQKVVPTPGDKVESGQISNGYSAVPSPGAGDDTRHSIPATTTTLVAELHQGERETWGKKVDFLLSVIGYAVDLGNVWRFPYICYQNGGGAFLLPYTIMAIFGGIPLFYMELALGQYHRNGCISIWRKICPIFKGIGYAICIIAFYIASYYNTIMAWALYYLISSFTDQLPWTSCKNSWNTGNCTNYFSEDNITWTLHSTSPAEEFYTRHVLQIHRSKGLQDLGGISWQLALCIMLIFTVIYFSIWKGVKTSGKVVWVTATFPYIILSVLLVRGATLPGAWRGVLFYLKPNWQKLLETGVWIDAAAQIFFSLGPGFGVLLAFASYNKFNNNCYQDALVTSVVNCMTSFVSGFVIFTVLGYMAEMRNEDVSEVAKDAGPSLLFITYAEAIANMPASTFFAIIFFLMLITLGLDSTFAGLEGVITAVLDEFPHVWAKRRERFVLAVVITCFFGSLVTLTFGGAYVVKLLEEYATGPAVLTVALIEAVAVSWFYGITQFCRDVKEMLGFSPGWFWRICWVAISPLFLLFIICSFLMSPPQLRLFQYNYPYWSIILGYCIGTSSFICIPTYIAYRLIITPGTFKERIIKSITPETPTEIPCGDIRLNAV

Row | SMILES | pKi [1] | pKi [2] | pKi [3] | IC20 (hERG (KCNH2)) [µM] | IC20 (CYP3A4) [µM] | IC20 (CYP2D6) [µM] | microsomal CLint (in vitro [4]) [µL/min/mg] | efflux ratio at 10 µM (in vitro [5]) | Papp B→A at 10 µM (in vitro [6]) [×10⁻⁶ cm/s] | Papp A→B at 10 µM (in vitro [7]) [×10⁻⁶ cm/s] | Papp (Caco-2 [8]) [×10⁻⁶ cm/s] | Papp (Caco-2 [9]) [×10⁻⁶ cm/s] | inhibition (INH) (Cytochrome P450 3A4)
1 | N#Cc1ccccc1CN(c1ccc2[nH]ccc2c1)C1CCNCC1 | 8.40 | 8.20 | 6.30 |  |  |  |  |  |  |  |  |  | 
2 | COc1cccc(CN(c2ccc3[nH]ccc3c2)C2CCNCC2)c1 | 8.80 | 8.40 | 7.10 | 1 |  |  |  |  |  |  |  |  | 
3 | CNCCN(c1ccccc1)c1ccc2[nH]ccc2c1 | 6.40 | 6.70 | 6.30 |  | 2 | 40 |  |  |  |  |  |  | 
4 | c1ccc(CN(c2ccc3[nH]ccc3c2)C2CCNC2)cc1 (stereo unspecified) | 7.70 | 8.00 | 7.50 | < 1 | 2 | 2 | 36 |  |  |  |  |  | 
5 | Fc1ccc(CN(c2ccc3[nH]ccc3c2)C2CCNCC2)cc1 | 8.70 | 6.60 | 6.60 |  |  |  |  |  |  |  |  |  | 
6 | NS(=O)(=O)c1cccc(CN(c2ccc3[nH]ccc3c2)C2CCNCC2)c1 | 8.20 | 7.10 | 7.60 | > 10 | 2 | 3 | 2 | 4.2 | 3 | 0.7 |  |  | 
7 | Cn1ccc2cc(N(Cc3ccccc3)C3CCNCC3)ccc21 | 8.40 | 7.60 | 7.10 | 5.1 | 5 | > 50 | 26 |  |  |  | 4 | 7 | 
8 | CNCCC(c1ccccc1)c1ccc2[nH]ccc2c1 (stereo unspecified) | 7.50 |  | 6.70 | < 1 | 3 | 5 | 11 |  |  |  |  |  | 
9 | c1ccc(CN(c2ccc3sccc3c2)C2CCNCC2)cc1 | 7.90 | 6.70 | 6.70 | 1 | 19 | 35 | 18 |  |  |  | 0.1 | 1.4 | 
10 | Fc1ccccc1CN(c1ccc2[nH]ccc2c1)C1CCNCC1 | 8.40 | 7.90 | 6.90 |  |  |  |  |  |  |  |  |  | 
11 | c1ccc(N(c2ccc3[nH]ccc3c2)C2CCNCC2)cc1 | 6.00 | 5.90 | < 5.80 |  | 26 | 14 |  |  |  |  |  |  | 
12 | c1ccc(CN(c2ccc3[nH]ccc3c2)C2CCNCC2)cc1 |  |  |  | 1 | 0.1 | 3 | 17 |  | 6 | 6 |  |  | tde
13 | c1ccc(CN(c2ccc3[nH]ccc3c2)C2CCCNC2)cc1 (stereo unspecified) | 8.20 | 7.20 | 7.40 | < 1 | 0.3 | 5 | 23 |  |  |  |  |  | 
14 | c1ccc(CN(c2ccc3[nH]ncc3c2)C2CCNCC2)cc1 | 8.90 | 7.80 | 7.30 | < 1 | 0.5 | 0.4 |  |  |  |  |  |  | 
15 | CC(c1ccccc1)N(c1ccc2[nH]ccc2c1)C1CCNCC1 (stereo unspecified) | 7.40 | 5.80 | 5.80 |  |  |  |  |  |  |  |  |  | 
16 | Fc1cccc(CN(c2ccc3[nH]ccc3c2)C2CCNCC2)c1 | 8.90 | 7.90 | 7.10 |  |  |  |  |  |  |  |  |  | 
17 | N#Cc1ccc(CN(c2ccc3[nH]ccc3c2)C2CCNCC2)cc1 | 8.60 | 6.00 | 6.10 |  |  |  |  |  |  |  |  |  | 
18 | c1ccc(CCN(c2ccc3[nH]ccc3c2)C2CCNCC2)cc1 | 8.20 | 7.30 | 6.80 |  |  |  |  |  |  |  |  |  | 
19 | N#Cc1cccc(CN(c2ccc3[nH]ccc3c2)C2CCNCC2)c1 | 9.60 | 8.00 | 7.50 | < 1 | 2 | 0.5 | 13 | 3.6 | 14 | 4 |  |  | 
20 | c1cc2cc(N(CC3CCOCC3)C3CCNCC3)ccc2[nH]1 | 7.40 | 7.40 | 6.30 |  | > 50 | 27 |  |  |  |  |  |  | 

— ChEMBL document CHEMBL1153074, “Novel, achiral aminoheterocycles as selective monoamine reuptake inhibitors” (Bioorg Med Chem Lett, 2009)
